Measured values published in patent publication US20230220480A1, “IRON-SCORE AND IN VITRO METHOD FOR IDENTIFYING HIGH RISK DLBCL SUBJECTS AND THERAPEUTIC USES AND METHODS” (CENTRE NATIONAL DE LA RECHERCHE SCIENTIFIQUE (CNRS), priority 2019, published 2023).
pIC50: −log10 of the molar value. Like-named read-outs stand apart in the source and are kept apart here.

Key:
[1] = test system: DB; test: Cell viability assay (CellTiter-Glo, ATP quantification); type: cell-based, human; conditions: 96H, read-out: IC50
Experimental: (§1) FIG. 3: Iron chelators and Ironomycin inhibit DLBCL cell growth DLBCL cells were incubated with different concentrations of iron chelators or vehicle for 96H. Inhibitory concentration 50% (IC50) was calculated with concentration-response curve after treatment with Deferoxamin (A), Deferasirox, (B) and Ironomycin (C). Cell viability was examined using quantification of ATP assay. Data are expressed as mean percentage+/−SEM of at least three independent experiments performed in sixplicate.
(§2) The 16 DLBCL cell lines (U2932, OCI-LY-3, NU-DHL-1, OCI-LY-19, DB, SUDHL4, OCILY1, SUDHL5, DOHH2, SUDHL10, HT, RI-1, SU-DHL-6, NUDUL-1, WSU-DLCL-2 and OCI-LY-7) were purchased from the DSMZ (Leibniz-Institut DSMZ—Deutsche Sammlung von Mikroorganismen und Zellkulturen GmbH, Germany). They were maintained in RPMI-1640 (Gibco, Invitrogen), supplemented with 10% fetal bovine serum (PAA laboratory GmbH) for U2932, SUDHL-4, HT, DOHH2, SUDHL-10, RI-1, WSU-DLCL-2 cell lines, 20% FBS OCI-LY3, DB, SUDHL-5, NUDHL-1, SU-DHL-6, NUDUL-1 cell lines. OCI-LY1 and OCI-LY7 were cultured in IMDM (Gibco, Invitrogen), supplemented with 20% fetal bovine serum and OCI-LY19 was cultured in MEM alpha modified (Gibco, Invitrogen), supplemented with 20% fetal bovine serum. Cultures were maintained at 37° C. in a humidified atmosphere with 5% CO2.
(§3) DLBCL-derived cell lines were cultured for 4 days in 96-well flat-bottom microtiter plates in RPMI 1640 medium, 10% or 20% FCS (control medium) in the presence of various compounds. The number of viable cells in culture was determined using the CellTiter-Glo Luminescent Cell Viability Assay from Promega, Madison, Wis., USA using a Centro LB 960 luminometer (Berthold Technologies, Bad Wildbad, Germany).
(§4) This test is based on quantitation of the intracellular ATP present, which signals the presence of metabolically active cells. Data are expressed as the mean percentage of six replicates, normalized to the untreated control.

[2] = test system: OCI-LY3; test: as above; type: cell-based, human; conditions: OCI-LY3, 96H; read-out: IC50
Experimental: as §1, §2, §3, §4

[3] = test system: U2932; test: as above; type: cell-based, human; conditions: U2932, 96H; read-out: IC50
Experimental: as §1, §2, §3, §4

[4] = test system: SUDHL-5; test: as above; type: cell-based, human; conditions: SUDHL5, 96H; read-out: IC50
Experimental: as §1, §2, §3, §4

[5] = test system: OCI-LY3 and DB DLBCL cells; test: ROS production, CM-H2DCFDA staining; type: cell-based, human
[6] = test system: DLBCL cells; test: Ferroptosis, Bodipy-C11 staining and ferrostatin-1 rescue; type: cell-based, human
[7] = test system: CD34+ cells; test: Hematopoietic progenitor colony forming units (CFU) assay; conditions: 14 days
Experimental: Hematopoietic progenitor colony-forming units assay were performed with CD34+ cells from apheresis of 5 donors. […] CFU-C, CFU-E and CFU-GM were counted after 14 days culture (C).
Mobilized peripheral blood of donor were collected using an apheresis machine. Cells were CD34+ enriched by immuno-magnetic cell separation and fluorescence activated cell sorting (FACS).
About 250 viable CD34+ cells/mL were cultured in Methocult GF H84434 Medium (Stem Cell, #84434). Using a 3 mL syringe attached to a 16 gauge blunt end needle, 1 mL of the mixture was dispensed into 2 35 mm dishes.
Dishes were incubated at 37° C., in 5% C02, with >95% humidity for 14 days.

[8] = test system: DLBCL cells; test: Autophagy, LC3B II puncta; type: cell-based, human; conditions: 100 nM, 24H, P<0.0001
[9] = test system: HT; test: Cell viability assay (CellTiter-Glo, ATP quantification); type: cell-based, human; conditions: HT (GCB), 96H
Text: as §2, §3, §4
(§5) We extending the analyses to a large panel of 16 DLBCL cell lines. The panel of 16 DLBCL cell lines were incubated with increasing concentrations of Ironomycin or vehicle for 96H. Table 7 hereunder presents the inhibitory concentration 50% (IC50) of Ironomycin for the 16 DLBCL cell-lines.

[10] = test system: NU-DHL-1; test: as above; type: cell-based, human; conditions: NU-DHL-1 (GCB), 96H
Text: as §2, §3, §4, §5

[11] = test system: OCI-LY7; test: as above; type: cell-based, human; conditions: OCI-LY7 (GCB), 96H
Text: as §2, §3, §4, §5

[12] = test system: SU-DHL-6; test: as above; type: cell-based, human; conditions: SU-DHL-6 (GCB), 96H
Text: as §2, §3, §4, §5

[13] = test system: SU-DHL-4; test: as above; type: cell-based, human; conditions: SU-DHL-4 (GCB), 96H
Text: as §2, §3, §4, §5

[14] = test system: NU-DUL-1; test: as above; type: cell-based, human; conditions: NU-DUL-1 (ABC), 96H
Text: as §2, §3, §4, §5

[15] = test system: OCI-LY1; test: as above; type: cell-based, human; conditions: OCI-LY1 (GCB), 96H
Text: as §2, §3, §4, §5

[16] = test system: DOHH-2; test: as above; type: cell-based, human; conditions: DOHH-2 (GCB), 96H
Text: as §2, §3, §4, §5

[17] = test system: SU-DHL-10; test: as above; type: cell-based, human; conditions: SU-DHL-10 (GCB), 96H
Text: as §2, §3, §4, §5

[18] = test system: WSU-DLCL-2; test: as above; type: cell-based, human; conditions: WSU-DLCL-2 (GCB), 96H
Text: as §2, §3, §4, §5

[19] = test system: OCI-LY19; test: as above; type: cell-based, human; conditions: OCI-LY19 (GCB), 96H
Text: as §2, §3, §4, §5

[20] = test system: RI-1; test: as above; type: cell-based, human; conditions: RI-1 (ABC), 96H
Text: as §2, §3, §4, §5

[21] = test system: OCI-LY3 and DB cell lines
Text: The inventors further investigated the effect of Iron supplementation on the cell death induced by these treatments. Iron chelators concentrations were chosen according the maximal plasmatic concentration achievable in the patient (Nisbet-Brown et al., 2003).
Chaetocin was used as positive control of ROS production inhibited by GSH (Isham et al., 2007).

[22] = test system: primary DLBCL cells; conditions: for reduction of the median number of viable primary DLBCL cells: N=5 patients, with CD40L
Experimental: Primary samples of DLBCL patients were cultured with their microenvironment recombinant CD40L in presence or absence of 50 nM and 100 nM of Ironomycin. Percentage of malignant DLBCL cells for each individual patients were analyzed by flow cytometry and expressed in % of control (A). […] The effect of Ironomycin alone or in combination with Doxorubicin on normal CD3+ cells was assessed by flow cytometry (C).
Cells are obtained from lymph nodes or blood of 5 patients with DLBCL. Cells from blood are obtained by density gradient separation and cells from lymph node are obtained with a tissues dissociator and qualified by Flow cytometry.
Cells are cultured in Gibco® Iscove's MDM (Glutamax) medium (#31980-022) with 20% FBS with antibiotitcs-antimicotics (Gibco Penicillin-streptomycin-amphotericin B 100X, #15240-096) at a density of 0.5×10^6 Cell/mL with 50 ng/mL of histidine-tagged CD40L (R&D System, 2706-CL) and 5 μg/mL of anti-histidine antibody R&D System, MAB050), Gibco® pyruvate 100X, #1136-039. Cells are seeded 24H after thawing and treated with various compounds during 72H.
Total cells were counted with trypan bleu and stained with the panel CD45 V500 (BD, #560777), Kappa FITC (Dako, F0434), CD19 PE-Cy7 (BD, #341113), Lambda PE (Dako, R0437), CD3 APC-H7 (BD, #641415), CD10 APC (BD, #332777) and CD20 V450 (BD, #655872) and analyzed by flow cytometry (Canto II cytometer, BD Pharmigen).Tumorous population cells were gated on CD19+, CD45+, CD20+, Kappa or lambda and non-tumorous population cells were gated on CD45+,CD19−, and T cells on CD45+, CD3+, CD19−.

Q: With `C#CCN[C@@H]1C=C[C@]2(O[C@H]([C@@H](CC)C(=O)[C@@H](C)[C@@H](O)[C@H](C)[C@@H]3O[C@@H]([C@@H](CC)C(=O)O)CC[C@@H]3C)[C@@H](C)C[C@H]2C)O[C@@]12CC[C@@](C)([C@H]1CC[C@](O)(CC)[C@H](C)O1)O2` [Ironomycin] as the molecule, how does the pIC50 [1] read?
A: 7.76

Q: What about the pIC50 [2] of the same molecule?
A: 7.77

Q: And the pIC50 [3]?
A: 7.52

Q: And the pIC50 [4]?
A: 7.54

Q: And the “inhibition of induced ROS production by ferrostatin and GSH” value [5]?
A: partially inhibited by ferrostin but not by gluthation (GSH)

Q: What about the ROS production ([5]; CM-H2DCFDA staining) of the same molecule?
A: induces ROS production

Q: What about the “prevention of induced cell death by ferrostatin-1” value [6] of the same molecule?
A: partially prevented

Q: And the “rescue of toxicity by combination of Oph-Q-VD and Fer-1” value [6]?
A: could not completely abrogate

Q: What about the “induction of ferroptosis (lipid peroxidation)” value ([6]; Bodipy-C11 staining) of the same molecule?
A: induces ferroptosis

Q: What about the “toxicity on CFU-C, CFU-E and CFU-GM formation” value ([7]; 10 nM, N=5) of the same molecule?
A: no significant toxicity

Q: What about the “hematopoietic toxicity compared to conventional chemotherapy” value ([7]; 50 and 100 nM) of the same molecule?
A: significant lower hematopoietic toxicity

Q: And the “LC3B II puncta (autophagy)” value [8]?
A: clear increase in LC3B II puncta

Q: And the pIC50 [9]?
A: 7.62

Q: And the pIC50 [10]?
A: 7.30

Q: And the pIC50 [11]?
A: 7.29

Q: What about the pIC50 [12] of the same molecule?
A: 7.48

Q: What about the pIC50 [13] of the same molecule?
A: 8.14

Q: What about the pIC50 [14] of the same molecule?
A: 7.86

Q: And the pIC50 [15]?
A: 7.69

Q: And the pIC50 [16]?
A: 7.04

Q: What about the pIC50 [17] of the same molecule?
A: 7.44

Q: And the pIC50 [18]?
A: 7.51

Q: What about the pIC50 [19] of the same molecule?
A: 7.33

Q: And the pIC50 [20]?
A: 7.52

Q: And the “caspase activation associated with apoptosis” value [21]?
A: activation of caspase-3 and −7

Q: And the induction of apoptosis ([21]; Annexin V and PARP cleavage)?
A: induces apoptosis

Q: What about the “effect of iron supplementation on drug-induced apoptosis / cytotoxicity” value ([21]; Iron(III) chloride supplementation) of the same molecule?
A: did not affect

Q: What about the “inhibition of induced apoptosis by Oph-Q-VD pan-caspase inhibitor” value ([21]; P<0.001) of the same molecule?
A: partially inhibited

Q: What about the “reduction of the median number of viable primary DLBCL cells” value ([22]; 50 nM) of the same molecule?
A: 63.1%

Q: And the “reduction of the median number of viable primary DLBCL cells” value ([22]; 100 nM)?
A: 67.1%

Q: And the “toxicity in DLBCL cells compared to normal cells from the microenvironment” value ([22]; primary samples, 50 nM and 100 nM)?
A: higher toxicity
